Consider 6 molecules from patent publication US8367316B2, “Human gastrointestinal stem cell-derived primary intestinal epithelial cell system and methods of use thereof” (AlfaGene Bioscience, Inc., priority 2009, dated 2013).

What all share (format): cell-based, human
Test [1] relates to HT29 cells. The test can be described thus: Nitric oxide production after immunostimulation, Griess reaction assay. The settings on record: agent alone; LPS (1 μm/ml), IFN-γ (200 u/ml); 24 hours; culture supernatants. As to the method:
(§1) Therefore, to gain insight about NO production regulation by intestinal EC, the effects of innate (LPS) and adaptive (IFN-γ) immunostimulatory agents on embodiments of the hGISC cell system derived non-transformed primary epithelial cells (EC) were studied and compared to a colonic adenocarcinoma EC line HT29.
(§2) In another assay for NO, a macrophage cell line MHS served as a positive control. Cells were cultured with/without LPS (1 μm/ml), IFN-γ (200 u/ml), or in combination for 24 hours. Culture supernatants were analyzed for NO content by Griess reaction assay (as mentioned herein).
In general terms: Griess reagent forms a coloured azo dye with nitrite.

The test system of test [2] is hGISC derived primary ECs. The test is described as above. Particulars: agent alone; LPS (1 μm/ml), IFN-γ (200 u/ml); 24 hours; culture supernatants.
Description: as §1
[…] Cell free culture supernatants were collected and analyzed for NO content using a Griess Reaction kit (e.g., Griess Reagent System, Part #TB229) (PROMEGA, Madison, Wis.) in accordance with the manufacturer's instructions.
as §2

Test [3] relates to HIPEC line (A2J1). The experiment in a line: Response to inflammatory mediators, IL-8 read-out. Particulars: stimulators at various concentrations. As to the method:
Using both IL-8 and MIP-3α read-out procedures, an HIPEC line of the present invention (A2J1) was tested for response to various inflammatory mediators (stimulators). The HIPEC line was compared to a Caco-2 cell line. The following stimulators were used at various concentrations: IL-1β; TNFα; IFNγ; Pam3CSK4 (TLR2); LPS (TLR4); and Flagellin (TLR5).

Test [4] deals with HIPEC monolayers. The test can be described thus: Inulin permeability of HIPEC monolayers grown on TransWell filters, with or without pro-inflammatory cytokines. Particulars: cytokine treatment 24 hrs, 3H-labeled Inulin, +/- standard error. The procedure:
Intestinal stem cell derived primary epithelial cell mono layers were tested for Inulin permeability.
Confluent monolayers of HIPEC cells were grown on transwell membranes in triplicates. Cells were then treated with or without pro-inflammatory cytokines for 24 hrs. ^3H-labeled Inulin was added to the upper chamber. Aliquots of medium retrieved from the upper and lower chambers were counted.
The % amount of inulin activity transported from the upper to the lower chamber was determined. The results are shown in Table 5 below, along with the standard error.

The subject of test [5] is HIPEC line A2J1. The experiment in a line: qPCR of markers for mature phenotype cells in HIPEC line upon cytokine stimulation. The settings on record: 1 ng/ml IL-1b or 25 ng/ml TNFα (24 hrs). As to the method: Using qPCR, the HIPEC line was also tested for various markers for mature phenotype cells, including the following cell subtypes: enteroendocrine; Goblet; Paneth; and enterocyte. The following markers were used, with the corresponding cell subtypes in parentheses: Somatostatin (enteroendocrine); Glucagon (enteroendocrine); Lysozyme (Goblet/Paneth); Defensin 5 (Goblet/Paneth); Trefoil factor 3 (Goblet/Paneth); Mucin 2 (Goblet/Paneth); Sucrose isomaltase (enterocyte); Carbonic anhydrase (enterocyte); Cd×2 promoter (enterocyte); and Guanylate cyclase c (enterocyte). Data from these tests supported a Goblet/secretory differentiation profile for the HIPEC line identified as A2J1 (derived from jejunem tissue).
For orientation: In qPCR the cycle at which signal appears reflects the starting amount.

Test [6] has as its system TLR6. The experiment in a line: Regulation of TLR expression by LPS on hGISC-derived primary epithelial cell line (FIG. 18). Particulars: LPS stimulation of HIPEC line, preliminary experiment.
Test [7] concerns TLR4. The test is described as above. The settings on record: LPS stimulation of HIPEC line, preliminary experiment.
Test [8] relates to TLR2. Described as above. Particulars: LPS stimulation of HIPEC line, preliminary experiment.
[9] abbreviates: Experiment #1, Medium Only 35.5% +/− 5.3.
[10] abbreviates: Experiment #2, Medium Only 41.6% +/− 0.96.
[11] abbreviates: Experiment #3, Medium Only 43.6% +/− 1.16.

As for “IFN-γ: interferon; adaptive immunostimulatory agent”, the NO production entry in test [1] and in test [2] was “neither LPS nor IFN-γ alone affect NO production” throughout. The IL-8 response result in test [3] is on record as “responsive”. Besides, the “% amount of inulin activity transported from the upper to the lower chamber” value (“% amount … from the upper to the lower chamber” for short) in test [4] (setting [9]) worked out at 36.0% +/− 2.8; in test [4] (setting [10]), 42.6% +/− 2.07; in test [4] (setting [11]) it was 42.7% +/− 0.30.

As to “IL-1β: pro-inflammatory cytokine; interleukin”, the “change in phenotype upon stimulation” value in test [5] is given as “no change in phenotype”. Moreover, in test [3], the IL-8 response result was “responsive”. In addition, the “% amount … from the upper to the lower chamber” value in test [4] (setting [9]) is 43.5% +/− 1.36; in test [4] (setting [10]), 50.4% +/− 0.94; in test [4] (setting [11]), 54.0% +/− 1.59.

As for IL-6: pro-inflammatory cytokine, the “% amount … from the upper to the lower chamber” value in test [4] (setting [9]) came out at 36.5% +/− 0.48; in test [4] (setting [10]), 41.8% +/− 0.59.

As to lipopolysaccharide [LPS], in test [6], the TLR6 expression result was “upregulated”. Moreover, the NO production result in test [1] and in test [2] was “neither LPS nor IFN-γ alone affect NO production” in each case. The TLR4 expression result in test [7] is recorded as “upregulated”. Besides, in test [8], the TLR2 expression result was “upregulated”.

Turning to tumor necrosis factor alpha [TNF-α], in test [5], the “change in phenotype upon stimulation” value was “no change in phenotype”. Besides, the IL-8 response result in test [3] is “responsive”. Moreover, the “% amount … from the upper to the lower chamber” value was determined as 41.2% +/− 0.66 in test [4] (setting [9]), 46.6% +/− 1.05 in test [4] (setting [10]) and 49.0% +/− 1.95 in test [4] (setting [11]).

B1: IL-1α: pro-inflammatory cytokine (protein, UniProt P01583 113-271, looked up)
Interleukin-1 alpha: SAPFSFLSNVKYNFMRIIKYEFILNDALNQSIIRANDQYLTAAALHNLDEAVKFDMGAYKSSKDDAKITVILRISKTQLYVTAQDEDQPVLLKEMPEIPKTITGSETNLLFFWETHGTKNYFTSVAHPNLFIATKQDYWVCLAGGPPSITDFQILENQA
As for B1, the “% amount … from the upper to the lower chamber” value in test [4] (setting [9]) turned out to be 40.0% +/− 3.6; in test [4] (setting [10]), 47.4% +/− 0.59; in test [4] (setting [11]) it was 50.7% +/− 0.40.
